Measurements as given in patent US20050130982A1, “Oral therapeutic or preventative drugs for pollakiuria and urinary incontinence and oral sleep inducers, containing tropolone derivatives” (Nippon Kayaku Kabushiki Kaisha, priority 2002, published 2005).
Marks after values point to notes of the source that are not given here.

What was measured:
[1] = tested on: rhythmic bladder contraction; assay: Effect on the rhythmic bladder contraction of rats (inhibition of micturition reflex); assay type: in vivo, rat; conditions: for Inhibition rate of the rhythmic contraction frequency of the bladder (%): anesthetized SD-IGS male rats, 120 minutes following administration; for Inhibitory activity on the frequency of the rhythmic bladder contraction (in words): rats
Protocol: The inhibitory effect on the micturition reflex was evaluated by the effect on the rhythmic bladder contraction according to the method of […] et al. (Rinshyoseiri 5, 540-547 (1975)). SD-IGS strain male rats were anesthetized by intraperitonial administration of urethane (1 g/kg). After exposing the bladder of the animal through an incision of the abdomen, a small incision was made on the top of the bladder from where a rubber balloon was inserted. The balloon was attached to a polyethylene tube connecting to a three way stopcock. The rest two ways of the stopcock were connected to a syringe for infusing water to the balloon and a transducer to measure the internal pressure of the bladder. The test animal was left for a while and then water was infused into the balloon until rhythmic contraction started. The change in the internal pressure of the bladder was recorded continuously by a polygraph. Drugs were dissolved in de-ionized water and administered through a catheter inserted in the duodenum. The effect of the drug was expressed as the inhibition ratio of the frequency of the rhythmic contraction of the bladder obtained by following formula. Inhibition rate (%)=100-{the frequency of the rhythmic contraction during 120 minutes following the administration (converted to the frequency per unit time)/the frequency of the rhythmic contraction 20 minutes immediately before the administration (converted to the frequency per unit time)×100}

[2] = tested on: sleep-inducing symptoms (drowsiness); assay: Observation of sleep-inducing symptoms in dogs after oral administration; assay type: in vivo, dog; conditions: male Beagle dogs
Protocol: Male dogs (Beagles) were orally administered with capsules filled with the test drug 1 and the symptoms were observed. The dosages were 3 mg/kg, 10 mg/kg, 30 mg/kg and 100 mg/kg.

[3] = molecular target: T1, human serotonin 1A receptor (Homo sapiens, UniProt P08908); assay: Serotonin 1A antagonism activity: affinity to the human serotonin 1A receptor in transfected CHO cells; assay type: binding; conditions: 10^−6 M test drug, 0.3 nM 8-OH-DPAT, CHO cells transfected with the human serotonin 1A receptor gene
T1 construct: expressed in transfected cells; host or cells: CHO cells
T1 sequence (P08908 1-422): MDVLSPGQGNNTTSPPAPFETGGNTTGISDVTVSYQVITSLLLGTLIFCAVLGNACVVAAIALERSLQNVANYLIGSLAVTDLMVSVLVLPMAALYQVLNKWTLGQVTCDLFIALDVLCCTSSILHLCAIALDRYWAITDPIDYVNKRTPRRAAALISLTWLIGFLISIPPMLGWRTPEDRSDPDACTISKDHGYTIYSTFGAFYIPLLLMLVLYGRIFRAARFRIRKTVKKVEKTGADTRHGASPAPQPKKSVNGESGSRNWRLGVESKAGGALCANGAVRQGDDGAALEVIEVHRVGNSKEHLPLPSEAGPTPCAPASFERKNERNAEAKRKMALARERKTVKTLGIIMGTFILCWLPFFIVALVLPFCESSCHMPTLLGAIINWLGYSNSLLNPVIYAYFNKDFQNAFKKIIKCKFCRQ
Protocol: The affinity of the test drug 1 to the human serotonin 1 A receptor was measured according to the method by Mulheron et al. (J. G. Mulheron et al., J. Biol. Chem., 269, 12954-12962 (1994)) by using the CHO cells transfected with the human serotonin 1A receptor gene.

[4] = Measurement of bioavailability by oral administration in rats; assay type: in vivo, rat; conditions: for Bioavailability (%): 6.25 mg/kg oral vs intravenous, ratio of AUC
Protocol: The intravenous administration group and the oral administration group consisted of 3 rats each (6 week-old male SD-IGS strain (Japan Charles River Co.)).
Each test drug was dissolved in physiological saline or ultra-pure water and administered to the rats intravenously or orally at 6.25 mg/kg. The blood samples were collected periodically and the plasma were prepared by the routine procedures. After deproteinization, the concentration of each test drug was measured by the LC/ESI(+) SRM method (liquid chromatography/electrospray-ionization (+) selected reaction monitoring method) and the bioavailability was calculated as the ratio (percent) of AUC (area under the blood concentration-time curve) of the oral administration and AUC of the intra-venous administration.

[5] = Hygroscopic evaluation at 75% relative humidity; assay type: physicochemical; conditions: for Weight change (mg) in 75% relative humidity: 50 mg sample; for Increase in weight (hygroscopicity, in words): 75% relative humidity for 26 days
Text: Fifty mg of the each test sample was weighed exactly and placed in a closed container in which the relative humidity was kept at 75% and the bottom chamber was filled with saturated brine.

[6] = intra-duodenal administration of 6.25 mg/kg
[7] = oral capsule, group of more than 10 mg/kg

Row | Compound | Bioavailability (%) ([4]; hydrochloride, 6.25 mg/kg) | Weight change (mg) in 75% relative humidity ([5]; storage time 0 hours) | Weight change (mg) in 75% relative humidity ([5]; storage time 2 hours) | Weight change (mg) in 75% relative humidity ([5]; storage time 4 hours) | Weight change (mg) in 75% relative humidity ([5]; storage time 6 hours) | Weight change (mg) in 75% relative humidity ([5]; storage time 103 hours) | Weight change (mg) in 75% relative humidity ([5]; storage time 170 hours) | Weight change (mg) in 75% relative humidity ([5]; storage time 26 days) | Increase in weight (hygroscopicity, in words) [5] | Inhibition rate of the rhythmic contraction frequency of the bladder (%) ([1]; 6.25 mg/kg intra-duodenal) | Inhibitory activity on the frequency of the rhythmic bladder contraction (in words) [1, 6] | Inhibition rate of the rhythmic contraction frequency of the bladder (%) ([1]; 12.5 mg/kg intra-duodenal) | further results
1 | COc1cc(C(C)C)ccc(CN2CCN(c3ncccn3)CC2)c1=O.Cl [Test drug 1, 4-isopropyl-2-methoxy-7-[4-(2-pyrimidyl)piperazinomethyl]-2,4,6-cycloheptatrien-1-one 1 hydrochloride] | 57% | – | – | – | – | – | – | – | – | 48.89 +/− 5.43* % | marked inhibitory activity | – | Inhibition rate of the rhythmic contraction frequency of the bladder (%) ([1]; 3.13 mg/kg intra-duodenal): 43.48%; Symptoms after oral administration ([2]; oral capsule, 3 mg/kg): no abnormal symptom was recognized; Drowsiness [2, 7]: drowsiness was observed; Time to drowsiness after administration [2, 7]: 20 to 30 min; Duration of drowsiness ([2]; oral, 30 mg/kg): 142 min; Duration of drowsiness ([2]; oral, 100 mg/kg): 318 min; Abnormal behavior other than drowsiness ([2]; oral, 3-100 mg/kg): No abnormal behavior other than drowsiness was observed; Drug concentration in the plasma ([2]; oral, 3-100 mg/kg): increased dose-dependently; Inhibition of the binding of 8-OH-DPAT to the human serotonin 1A receptor [3]: 77%; Plasma concentration in rats administered orally ([4]; oral 6.25 mg/kg): ~10^−6 M
2 | CC(C)c1ccc(CN2CCN(c3ccccc3)CC2)c(=O)c(OCc2ccccc2)c1.O=C(O)/C=C/C(=O)O [Control drug, 2-benzyloxy-4-isopropyl-7-[4-phenylpiperazinomethyl]-2,4,6-cycloheptatrien-1-one 1 fumarate, reference compound] | – | – | – | – | – | – | – | – | – | – | – | 4.81 +/− 4.09 (n = 6) % | Inhibitory activity on the frequency of the rhythmic bladder contraction (in words) ([1]; intra-duodenal, dose of 12.5 mg/kg): did not show significant activity; Bioavailability (%) [4]: 6%
3 | CC(C)c1ccc(CN2CCN(c3ncccn3)CC2)c(=O)c(O)c1.Cl [Test drug 2, 2-hydroxy-4-isopropyl-7-[4-(2-pyrimidyl)piperazinomethyl]-2,4,6-cycloheptatrien-1-one 1 hydrochloride] | 31% | – | – | – | – | – | – | – | – | 26.84 +/− 5.33 (n = 4) % | marked inhibitory activity | 59.08 +/− 3.18* (n = 3) % | –

The next lines start with results.

Row | Bioavailability (%) ([4]; hydrochloride, 6.25 mg/kg) | Weight change (mg) in 75% relative humidity ([5]; storage time 0 hours) | Weight change (mg) in 75% relative humidity ([5]; storage time 2 hours) | Weight change (mg) in 75% relative humidity ([5]; storage time 4 hours) | Weight change (mg) in 75% relative humidity ([5]; storage time 6 hours) | Weight change (mg) in 75% relative humidity ([5]; storage time 103 hours) | Weight change (mg) in 75% relative humidity ([5]; storage time 170 hours) | Weight change (mg) in 75% relative humidity ([5]; storage time 26 days) | Increase in weight (hygroscopicity, in words) [5] | Compound | Inhibition rate of the rhythmic contraction frequency of the bladder (%) ([1]; 6.25 mg/kg intra-duodenal) | Inhibitory activity on the frequency of the rhythmic bladder contraction (in words) [1, 6] | Inhibition rate of the rhythmic contraction frequency of the bladder (%) ([1]; 12.5 mg/kg intra-duodenal) | further results
4 | – | 0.0 mg | 0.3 mg | 0.4 mg | 0.1 mg | 0.1 mg | 0.2 mg | 0.2 mg | No substantial increase | COc1cc(C(C)C)ccc(CN2CCN(c3ncccn3)CC2)c1=O.O=C(O)/C=C/C(=O)O [Test sample 2, 4-isopropyl-2-methoxy-7-[4-(2-pyrimidyl)piperazinomethyl]-2,4,6-cycloheptatrien-1-one 1 fumarate] | – | – | – | –
5 | – | 0.0 mg | 0.2 mg | 0.2 mg | 0.1 mg | 0.1 mg | 0.1 mg | 0.1 mg | No substantial increase | COc1cc(C(C)C)ccc(CN2CCN(c3ncccn3)CC2)c1=O.O=C(O)C(O)C(O)C(=O)O.O=C(O)C(O)C(O)C(=O)O [Test sample 1, 4-isopropyl-2-methoxy-7-[4-(2-pyrimidyl)piperazinomethyl]-2,4,6-cycloheptatrien-1-one 2 DL-tartrate] | – | – | – | –
